From patent US20150351390A1, “COMPOSITIONS AND METHODS FOR AUXIN-ANALOG CONJUGATION” (PIONEER HI-BRED INTERNATIONAL, INC., priority 2012, published 2015) come the findings set out here.

Assay [1] has as its system Soybean seeds. The assay can be described thus: Phytotoxicity evaluation during soybean germination. Format: in vivo. As to conditions: 1 μM in germination media, 10 days. As to the method: To evaluate the effect of synthetic auxin conjugates in plants, 2,4-D-Asp, 2,4-D-Glu, dicamba-Asp, and dicamba-Glu were synthesized (Irvine Chemistry Laboratory, Anaheim, Calif.) and tested for auxin effects during soybean germination.
Asp and Glu conjugates of 2,4-D and dicamba were dissolved in a small quantity of Na2CO3 and ethanol, respectively, diluted in ddH2O to obtain 10 mM stock solution, and filter sterilized. Soybean seeds of a Pioneer elite germplasm were sterilized with chlorine gas as following: a) two layers of seeds were placed in a 100×25 mm plastic Petri dish; b) in an exhaust fume hood, seeds were placed into a glass desiccator with a 250 mL beaker containing 100 mL bleach (5% NaOC1) and 3.5 mL 12N HCl was slowly added to the beaker; c) the lid was sealed closed on the desiccator and the seeds sterilized for at least 24 hr.
Sterilized soybean seeds were then imbibed in ddH2O under sterile conditions at 25° C. for 24 hours before germination test. For germination test, 6-8 imbibed seeds were placed on a 100×25 mm deep Petri dish plate containing 50 ml germination media supplemented with or without auxin herbicide conjugates. 1 L seed germination media contains 3.21 g GAMBORG B-5 basal medium (PhytoTech), 20 g sucrose, 5 g tissue culture agar, and is pH adjusted to 5.7. Media was autoclaved at 121° C. for 25 min and cooled to 60° C. before the addition of auxin conjugates. Germination was carried out in a Percival growth chamber at 25° C. under 18 hr light and 6 hr dark cycle at 90 to 150 μE/m2/s and grown for 10 days.

The subject of assay [2] is soybean seedlings. The assay can be described thus: Soybean seedling response to spot infiltrated auxins and conjugates. On 1st trifoliate leaf curl: key: 0 = no phenotype; +/− = threshold. On Chlorotic lesion @ app. Pnt: key: 0 = no phenotype; +/− = threshold. Format: in vivo. As to conditions: for 1st trifoliate leaf curl / Chlorotic lesion @ app. Pnt / Epinasty score: spot infiltration; for Plant response phenotype, soybean: result in words. On the set-up: 1st trifoliate leaf curl / Epinasty score: key: 0 = no phenotype; +/− = threshold. The procedure:
Conjugate forms of auxinic compounds when applied through spot infiltration, a needleless method to introduce exogenous agents into plant cells. Initially, various concentrations of analytical grade (98%+pure) IAA, 2,4-D, and dicamba were prepared as solutions that were applied directly to uni-foliate leaves of 9 day old soybean seedlings by spot infiltration in order to determine the range of auxinic response and severity.
Spot infiltration comprises applying a compound to be tested in composition that is applied to the surface of a plant, for example, to a leaf or other plant structure. For example, a method for testing a plant response to one or more compounds using spot infiltration comprises a) providing a composition comprising one or more compounds to be tested in a container having at least an opening for the compound enter and/or exit, and one or more elements for moving the composition into or out of the container; b) contacting at least one opening of the container with the surface of a plant and moving the composition comprising one or more compounds to at least the surface of the plant. A container and elements for moving the composition may comprise a syringe body and plunger. Moving the composition to the plant surface comprises contacting the surface with pressure sufficient for the composition to enter the cells of the plant. In an aspect, spot filtration testing comprises measuring an effect of the composition on the contacted plant and comparing that measure or effect to a plant that is not contacted with the composition.
Plant response phenotypes were documented at one day post-spot infiltration and subsequently every other day, up to nine days post treatment. […] In the studies described herein below, 5 replicate treatments for each conjugate form were conducted, along with appropriate negative controls.
(§1) Examples 9 and 10 utilized a spot infiltration method for the delivery of an herbicide directly to leaves of a plant. The method generally allows for the directed delivery of a variety of agents to a localized area of a plant, e.g. localized region of leaves, for screening or assessment purposes, e.g. to quickly assess the response of a plant to the agent. As used in the foregoing examples, the spot infiltration method was used to introduce specific herbicides or specific conjugates of the herbicides to seedling plant leaves. Following introduction of the herbicide or the appropriate conjugate, plants were observed daily for nine days for characteristics of epinasty, trifoliate leaf curly, chlorosis, and new growth recovery.
(§2) Briefly, a solution of the desired agent is prepared of the desired agent, e.g. as described above in Example 10, solutions (5% EtOH) of 1, 2.5 and 5 mM IAA. The solution is then drawn into a 1 mL BD™ slip-tip syringe, bulk, non-sterile syringe (e.g. Becton, Dickinson and Company, Product No. 301025) with 100 μL markings. The desired volume is then applied to the leaf, e.g. as described in Examples 9 and 10, with the tip of the syring against the leaf and positive pressure applied to the syringe plunger. Sufficient pressure is applied in order to infuse the area beneath the syringe opening, but not so much pressure as to cause a visible-to-the-eye puncture or hole to form in the leaf. Some run-off of solution around the syringe opening is expected. In the foregoing examples, two spots were applied to each of two leaves per seedling for soybean plants. […] In soybean, both spots per leaf were at the distal portion of the leaf about 1-2 cm apart. When the method was applied to Arabidopsis, two developmentally intermediate aged leaves were chosen per plant, and one spot infiltration was carried out per leaf.

Assay [3] concerns Arabidopsis ecotype Col-0 plant. The assay can be described thus: Arabidopsis response to spot infiltrated auxins and conjugates. It counts as in vivo, Arabidopsis thaliana. As to conditions: result in words. As to the method:
The effect of auxin conjugates was assessed using Arabidoposis (Arabidopsis thialiana) ecotype Col-0 plant. Prior to studies utilizing the auxin conjugates, levels of analytical grade (98%+pure) IAA, 2,4-D and dicamba in solution were applied at various concentrations directly to developmentally similar leaves of 20-23 day old Arabidopsis seedlings by needleless syringe spot infiltration methodology, in order to determine range of auxinic response and severity. Phenotypes were documented relative to control at 1 day post-spot infiltration and subsequently every other day, up to nine days post treatment. Three concentrations were chosen based on reproducibility, and conjugated forms were then studied with 4 or more replicate treatments for each, along with appropriate negative controls (H2O and 10% EtOH).
as §1, §2
Generally, for Arabidopsis, the two leaves were chosen from opposite sides of rosette. In general, the spot infiltration method is carried out on younger plants in order to minimize experimental footprint and to maintain developmental uniformity. However, the method is not limited to use on young plants and can be easily applied to older plants as determined by the goals of a particular experiment.

As for `O=C(O)C[C@H](NC(=O)COc1ccc(Cl)cc1Cl)C(=O)O` [2,4-D-Asp], the “Soybean seed germination and growth” value in assay [1] was “seed germination and growth were normal”. In addition, the “1st trifoliate leaf curl” value in assay [2] (100 μM), in assay [2] (250 μM) and in assay [2] (500 μM) was 0 each time. For the same molecule, the “Plant response phenotype, soybean” value in assay [2] (100, 250 & 500 μM) was “auxinic response nearly equivalent to that of 2,4-D”.

For `COc1c(Cl)ccc(Cl)c1C(=O)NC(CC(=O)O)C(=O)O` (centres unmarked) [dicamba-Asp], in assay [1], the “Soybean seed germination and growth” value was “seed germination and growth were normal”. In assay [2] (50 μM), the “1st trifoliate leaf curl” value is listed as 0, the “Chlorotic lesion @ app. Pnt” value is 0 and the Epinasty score is on record as 0. In assay [2] (100 μM), the “1st trifoliate leaf curl” value worked out at 0, the “Chlorotic lesion @ app. Pnt” value is given as 0 and the Epinasty score was found to be 0. In addition, in assay [2] (250 μM), the “1st trifoliate leaf curl” value came out at 0, the “Chlorotic lesion @ app. Pnt” value was 0 and the Epinasty score was 0. The “Plant response phenotype, soybean” value in assay [2] (50, 100 and 250 μM) is “phenotypes similar to that of negative control”. Further, the “Phenotype, Arabidopsis” value in assay [3] (50, 100 and 250 μM) is given as “No obvious phenotype”.

As to `COc1c(Cl)ccc(Cl)c1C(=O)O` [dicamba, 3,6-dichloro-2-methoxybenzoic acid free acid], the “Soybean seed germination and growth” value in assay [1] is “seed germination was arrested”. Moreover, the “Chlorotic lesion @ app. Pnt” value in assay [2] (50 μM), in assay [2] (100 μM) and in assay [2] (250 μM) was 0 each time. For the same molecule, the “Plant response phenotype, soybean” value in assay [2] (50, 100 and 250 μM) was “epinasty at day 1 and leaf curling of 1st tri-foliate”. For the same molecule, the “Phenotype, Arabidopsis” value in assay [3] (50, 100 and 250 μM) is “petiole epinasty and leaf curling at day one”.

In the case of `COc1c(Cl)ccc(Cl)c1C(=O)NC(CCC(=O)O)C(=O)O` (centres unmarked) [dicamba-Glu], the “Soybean seed germination and growth” value in assay [1] was “seed germination and growth were normal”. Moreover, the “1st trifoliate leaf curl” value in assay [2] (50 μM), in assay [2] (100 μM) and in assay [2] (250 μM) was 0 throughout. Besides, the “Chlorotic lesion @ app. Pnt” value in assay [2] (50 μM), in assay [2] (100 μM) and in assay [2] (250 μM) was 0 in each case. Moreover, the Epinasty score in assay [2] (50 μM), in assay [2] (100 μM) and in assay [2] (250 μM) was 0 throughout. In assay [2] (50, 100 and 250 μM), the “Plant response phenotype, soybean” value was “phenotypes similar to that of negative control”. For the same molecule, the “Phenotype, Arabidopsis” value in assay [3] (100 and 250 μM, compared to dicamba alone) is on record as “modest epinasty”.

`O=C(O)CC[C@H](NC(=O)COc1ccc(Cl)cc1Cl)C(=O)O` [2,4-D-Glu]: the “Soybean seed germination and growth” value in assay [1] was “seed germination and growth were normal”. In addition, the “1st trifoliate leaf curl” value in assay [2] (100 μM), in assay [2] (250 μM) and in assay [2] (500 μM) was 0 throughout. Also, the Epinasty score entry in assay [2] (100 μM) and in assay [2] (250 μM) was “+/−” in each case. Further, the “Plant response phenotype, soybean” value in assay [2] (500 μM) is “modest epinasty”; in assay [2] (100, 250 & 500 μM) it was “distinctly lower level of severity”; in assay [2] (lower concentration than 500 μM), “no discernible auxinic responses”.
